Assay results taken from patent publication US8304454B2, “Antimicrobial cellulose sponge and method of making” (3M Innovative Properties Company, priority 2007, dated 2012).

How the values were obtained:
[1] = Water activity of humectant solutions (AquaLab CX-2); type: physicochemical
Method: (§1) Water activity (aw) is a measure of the amount of free water available to a microorganism to support growth. Water activity expresses the active portion of the water content as opposed to the total moisture content, which includes “bound water.” The measurements were conducted using the AquaLab CX-2 by Decagon Devices, Inc. by utilizing the chilled mirror/dew point hygrometric methodology for determining water activity. The cellulose sponge was cut into a disk having a 1.5″ inch diameter and 1/16 inch thick.
A commercially available magnesium chloride hexahydrate (MgCl2.6H2O) (EMD Chemical Company, Gibbstown, N.J.), sodium chloride (NaCl) (Fisher Scientific Company, Fair Lawn, N.J.), potassium chloride (KCl) (EMD Chemical Company, Gibbstown, N.J.), and glycerol (EMD Chemical Company, Gibbstown, N.J.) was mixed to obtain a desired concentration. The solution was measured for water activity using the AquaLab CX-2 by Decagon Devices, Inc. The water activity for those solutions is presented in Table 7.

[2] = Water activity of humectants in cellulose sponges (AquaLab CX-2); type: physicochemical
Method: Water Activity (aw) in the Cellulose Sponges
as §1
A prepared cellulose sponge was soaked for 20 minutes in one of the MgCl2 or NaCl humectant solutions from Example 3. After soaking, the cellulose sponge was squeezed out between squeeze rolls and then immediately placed into airtight plastic bags. The samples were tested for water activity within 24 hours.

| Water Activity of humectant solution ([1]; solution concentration 8%) | Water Activity of humectant solution ([1]; solution concentration 10%) | Water Activity of humectant solution ([1]; solution concentration 12%) | Water Activity of humectant solution ([1]; solution concentration 16%) | Water Activity of humectant solution ([1]; solution concentration 20%) | Water Activity of humectant solution ([1]; solution concentration 14%) | Water Activity of humectant solution ([1]; solution concentration 18%) | Water Activity of humectant solution ([1]; solution concentration 50%) | Structure (SMILES) | Water Activity of humectant solution ([1]; solution concentration 22%) | Water Activity of humectant solution ([1]; solution concentration 24%) | Water Activity of humectant in cellulose sponge ([2]; 10 wt. % of input solution) | Water Activity of humectant in cellulose sponge ([2]; 12 wt. % of input solution) | Water Activity of humectant in cellulose sponge ([2]; 14 wt. % of input solution) | Water Activity of humectant in cellulose sponge ([2]; 16 wt. % of input solution) |
| --- | --- | --- | --- | --- | --- | --- | --- | --- | --- | --- | --- | --- | --- | --- |
| 0.973 | 0.960 | 0.957 | 0.943 | 0.925 |  |  |  | O=C([O-])[O-].[K+].[K+] [Formulation K2CO3] |  |  |  |  |  |  |
| 0.975 | 0.971 | 0.966 | 0.955 | 0.944 | 0.962 | 0.950 | 0.811 | OCC(O)CO [Glycerol, glycerol] | 0.939 | 0.934 |  |  |  |  |
| 0.944 | 0.926 | 0.904 | 0.847 | 0.768 | 0.876 | 0.841 |  | O.O.O.O.O.O.[Cl-].[Cl-].[Mg+2] [MgCl2, magnesium chloride hexahydrate (MgCl2.6H2O)] |  |  | 0.913 | 0.896 | 0.890 |  |

| Structure (SMILES) | Water Activity of humectant solution ([1]; solution concentration 8%) | Water Activity of humectant solution ([1]; solution concentration 10%) | Water Activity of humectant solution ([1]; solution concentration 12%) | Water Activity of humectant solution ([1]; solution concentration 16%) | Water Activity of humectant solution ([1]; solution concentration 20%) | Water Activity of humectant solution ([1]; solution concentration 14%) | Water Activity of humectant solution ([1]; solution concentration 18%) | Water Activity of humectant solution ([1]; solution concentration 50%) | Water Activity of humectant solution ([1]; solution concentration 22%) | Water Activity of humectant solution ([1]; solution concentration 24%) | Water Activity of humectant in cellulose sponge ([2]; 10 wt. % of input solution) | Water Activity of humectant in cellulose sponge ([2]; 12 wt. % of input solution) | Water Activity of humectant in cellulose sponge ([2]; 14 wt. % of input solution) | Water Activity of humectant in cellulose sponge ([2]; 16 wt. % of input solution) |
| --- | --- | --- | --- | --- | --- | --- | --- | --- | --- | --- | --- | --- | --- | --- |
| [Cl-].[K+] [KCl, potassium chloride] | 0.952 | 0.950 | 0.938 | 0.915 | 0.891 | 0.928 | 0.904 |  | 0.875 | 0.859 |  |  |  |  |
| [Cl-].[Na+] [NaCl, sodium chloride] | 0.949 | 0.936 | 0.919 | 0.887 | 0.842 |  |  |  |  |  | 0.926 | 0.921 | 0.900 | 0.881 |
